Results reported in PMC4315428 (PLoS ONE, 2015).

Assays:
L-type Ca^2+ channel = format: cell-based, rat (Sprague-Dawley); details: 10 μM
T-type Ca^2+ channel = format: cell-based, rat (Sprague-Dawley); details: 10 μM
[1] = test system: tetrodotoxin-sensitive (TTX-S) sodium channels; details: read-out: IC50 value, TTX-S voltage-gated sodium channels; cited from earlier work

Substance: Hainantoxin-IV [HNTX-IV]
- effect on Ca^2+ currents (L-type) (L-type Ca^2+ channel): neither native HNTX-IV (Fig. 8A, 8B) nor rHNTX-IV (Fig. 8C, 8D) could cause obvious changes
- effect on Ca^2+ currents (T-type) (T-type Ca^2+ channel): neither native HNTX-IV (Fig. 8A, 8B) nor rHNTX-IV (Fig. 8C, 8D) could cause obvious changes
- IC50 [1]: 34 nM
